This is an account of results in patent US10119122B2, “Differentiation and expansion of endothelial cells from pluripotent stem cells and the in vitro formation of vasculature like structures” (Academisch Ziekenhuis Leiden, priority 2013, dated 2018).

Structures are written as SMILES.

Common to all, as to assay type: cell-based, human
Experiment [1] relates to control iPSC-derived ECs co-cultured with control iPSC-derived pericytes/mesenchymal cells. Kind of experiment: 2D endothelial-pericyte co-culture sprouting assay, control ECs. The note with it: for sprout formation / number of endothelial sprouts: SB431542 (10 μM in FIG. 20 legend); for total area covered by endothelial sprouts: SB431542. On the procedure: (§1) The endothelial capillary-like network formation assay was carried out as previously described but with major modifications (Evensen et al., 2013). These included using both ECs and pericytes derived from human iPSC lines. This is described in more detail elsewhere (Orlova et al., manuscript in preparation). ECs were labelled with the general cytoplasmic labeling dye (PKH-26). For the sprouting assay, 12,000 ECs derived from both control and diseased lines were plated with 50,000 control iPSC-derived pericytes/well on 0.1% gelatin coated 96-well plates in EGM-2 (Lonza, CC-3162). Next day and on the day 4 of the assay, medium was replaced with new EGM-2 media containing tested compounds as indicated in the figure legends. Endothelial-pericyte co-culture was terminated on day 7 of the assay each well immunofluorescently stained for quantification, as follows: co-cultures were fixed with the 4% paraformaldehyde (PFA), permeabilized with the 0.1% TX-100 and blocked with the normal goat serum (Dako). Endothelial sprouts were visualized with the mouse anti-CD31 (Dako, 1:200). In some experiment with the mouse blocking antibodies, rabbit anti-CD31 (Scbt, 1:200) was used instead. Pericytes were visualized with antibodies against SM22 (Sigma, 1:200). The endothelial network was imaged with the BD Pathway 855 system using the 4× or 10× objective and 2×2 (or 3×3) Montage mode. Total area covered by the endothelial sprouts was quantified with the protocol developed within cell image analysis software CellProfiller (Broad Institute). High magnification images were acquired with the SP5 confocal microscope, using 10× and 40× objectives.
A two-dimensional co-culture system was first established in vitro consisting of control iPSC-derived ECs cultured with the control iPSC-derived mesenchymal cells (FIG. 10A). The protocol was optimized and adapted to the BD Pathway 855 imaging system, based on the protocol initially described for the co-culture of HUVECs and vascular SMCs (vSMCs) (Evensen et al., 2013). On day 7 of the co-culture, iPSC-derived EC had organized and formed spouts on the top mesenchymal cells, as evidenced by immunofluorescent staining with the EC-specific CD31 and SMC-specific SM22 markers (FIG. 10B).
(§2) Endothelial cell-pericyte co-culture was performed as described previously (Evensen et al., 2013) but using conditions optimized for iPSC-derived ECs and pericytes as described (Orlova et al., manuscript in preparation). In brief, 12,000 and 50,000 iPSC-derived ECs and pericytes were plated, respectively, in each well of a 96-well plate. Next day the co-cultures were refreshed with the specific treatment conditions indicated. The co-culture was fixed on day 7, and EC sprouts stained with anti-CD31 antibody (1:200, Dako) (as described in Orlova et al., manuscript in preparation). Pericytes were visualized with the anti-SM22 antibody (1:200, Abcam). The BD Pathway 855 system was used for automatic image acquisition, with the 4× objective and 2×2 (or in some cases 3×3) montage mode. CellProfiller (Broad Institute) custom pipeline was used for the image quantification.

Experiment [2] deals with iPSC-derived pericytes/mesenchymal cells. Kind of experiment: Contractile smooth muscle marker expression in iPSC-derived pericytes/mesenchymal cells. The conditions noted are these: ALK5 inhibitor. On the procedure: Our differentiation system facilitates simultaneous derivation and expansion of pericytes and ECs from iPSC lines. […] Thus, a renewable source of pericytes/SMCs was created for co-culture with ECs that would in principle be able to simulate endothelial-pericyte interaction in humans.
iPSC-derived pericytes/mesenchymal cells were derived from the CD31− fraction emerging during the endothelial differentiation protocol. CD31− cells were plated on gelatin coated plates in EGM-2 media (Lonza). After 4 days medium was replaced by DMEM+10% FBS supplemented with TGFβ3 (2 ng/ml, Peprotech) and PDGF-BB (4 ng/ml, Peprotech). iPSC-derived pericytes were routinely maintained on gelatin-coated plates in DMEM+10% FBS. Cells were characterized for the expression of pericyte and mesenchymal cell-specific markers by flow cytometry and immunofluorescent staining as describe above.
ECs and pericytes were cultured as described above on gelatin coated coverslips. Cells were fixed with 4% PFA, permeabilized and stained with the following antibodies as described (Orlova et al., Manuscript in preparation): anti-Ve-Cadherin (1:200, CellSignaling), anti-vWF (1:200, Dako), anti-CD31 (1:200, Dako), anti-SM22a (1:200, Abcam), anti-SMA (1:400, Sigma), anti-CNN1 (1:200, Sigma).

The subject of experiment [3] is HHT1-iPSC-derived ECs co-cultured with control iPSC-derived pericytes. In words: 2D endothelial-pericyte co-culture sprouting assay, HHT1 patient ECs. The conditions noted are these: SB431542 added with TGFβ3 (1 ng/ml) or BMP9 (1 ng/ml); day 7; control and HHT1-iPSC ECs (FIG. 17). Here is the method: as §1
It was hypothesized that this system might be useful for distinguishing […] versus paracrine effects of endoglin deficiency in HHT1-iPSCs-derived ECs. Therefore, ECs from HHT-iPSC lines in the co-culture assay combined with the pericytes derived from the control iPSCs were examined. Little difference was observed between ECs from HHT1 and control iPSCs in co-culture. ECs from the patient harboring the 1083delAA and IVS 5+2 (T>C) mutation similar endothelial sprout formation as the controls (FIGS. 11A and 11B).
as §2

Where [4] appears, read: day 7, listed as ALK5 inhibitor.

`NC(=O)c1ccc(-c2nc(-c3ccc4c(c3)OCO4)c(-c3ccccn3)[nH]2)cc1` [SB431542, reference compound]: in experiment [1] (ALK5 inhibitor, day 7, confocal imaging and quantification), the “SM22 fluorescence intensity in endothelial-pericyte co-culture” value was “increase in SM22 fluorescence intensity”. In addition, the “endothelial cell proliferation (Ki67+ ECs)” value in experiment [1] (SB431542 10 μM, day 7 co-culture) was “Increased endothelial cell proliferation”. Also, in experiment [1] (day 7), the “sprout formation / number of endothelial sprouts” value is “enhancement of sprout formation” and the “total area covered by endothelial sprouts” value is on record as “increase in the total area covered by endothelial sprouts”. For the same molecule, in experiment [1] (setting [4]), the “sprout formation / number of endothelial sprouts” value is “significant increase in number of endothelial sprouts” and the “total area covered by endothelial sprouts” value is “significant increase”. The “SM22 expression in pericytes” value in experiment [2] is reported as “no effect on SM22 expression in pericytes”. The “rescue of ligand-induced inhibition of sprout formation” value in experiment [3] is “rescued the inhibitory effect of both TGFβ3 and BMP-9”.
